Data: patent US20040234580A1, “Animal feeds including actives and methods of using the same” (priority 2001, published 2004)

What was measured:
[1] = Storage stability of ivermectin in extruded dog food (HPLC content, frozen versus ambient); assay type: physicochemical
Description: Following this treatment, the product was dried to a moisture level of less than 10% by weight. Three samples from the dryer were subsequently frozen and another […] placed in a plastic bag and stored at room temperature, for a period in excess of six months.
The products resulting from this test were analyzed to determine the content of ivermectin in the samples. In this analysis, each feed sample was ground in a Retsch mill at low speed using a 2 mm grating screen, so that the ground material would pass through a #10 mesh screen. A total of six samples, three frozen and three stored at room temperature, were processed. In each case, three 37.5 g of a sample was placed in a 250 ml bottle and 100 ml of methanol was added. The bottle was capped, the sample was sonicated for 20 minutes and shaken for 1 hour. 40 ml of the extract was added to a centrifuge tube and centrifuged for 5 minutes at 2000 rpm. 20 ml of the supernatant solution was then passed through a alumina column. The first five ml was rejected and the remainder of the liquid through the column was collected as a purified sample. 2 ml of the purified sample was mixed with a 5 ml mixture of acetonitrile:water (1:1), and a solid phase extraction (SPE) was performed in accordance with the procedure described in Doherty et al., Analytical Chemists International, 81:869(4) (1998). […]

[2] = Ivermectin content of dog blood after ad libitum feeding of ivermectin-containing dog food (HPLC); assay type: in vivo; details: female mixed breed dog about 10 kg; Example 2 feed (approx. 1121.1 μg ivermectin/kg db) ad libitum; blood drawn four hours after eating, day 7 and seven days later
Description: The dog food from this run was fed ad libitum to an intact female mixed breed dog weighing about 10 kg. On day 7, blood was drawn from the dog four hours after eating and stored in an anti-coagulant tube with calcium EDTA in a refrigerator. Seven days later, the same dog was again fed the ivermectin-containing feed ad libitum and blood was collected four hours post-feeding. This sample was also refrigerated in the same fashion as the first sample.
The blood samples were then analyzed to determine the content of ivermectin therein, using HPLC. The procedure used was described in Diclidnson, Journal of Chromatography, 58:250-257 (1990). In this procedure, 0.5 ml of each blood sample was purified using solid phase extraction (SPE) cartridges and dissolved in a small volume of mobile phase for injection onto the HPLC column. The method has a limit of detection of about 2 ng/ml and uses an internal standard. After preparation of the internal standard, a standard curve is constructed using ivermectin-spiked blood samples. A known 1% ivermectin sample was used as the primary standard.
The blood samples from the dog were then analyzed for ivermectin content with HPLC peak heights corrected using the internal standard.

## Ivermectin
[1]; co-extruded pillow dog food of Example 1, stored frozen or at room temperature in excess of six months, expected content 0.42 μg/kg, HPLC
  average ivermectin content of the three frozen and the ambient-stored samples: 0.43 µg/kg
[1]; dog food of Example 1, frozen versus room temperature in excess of six months
  effect of storage conditions (frozen versus ambient) upon ivermectin potency: little effect
[2]
  ivermectin in dog blood samples: 5 to 8 ng/mL
